# Active and inactive are the calls of the source. No cut-off for these calls is given here.
# How the values were obtained:
# [1] = tested on: Klebsiella pneumoniae; assay: Bactericidal activity against Klebsiella pneumoniae ATCC 43816; format: functional
# [2] = tested on: Staphylococcus aureus; assay: Antibacterial activity against Staphylococcus aureus ATCC 25923 incubated for 16 to 24 hrs by broth microdilution method; format: functional; conditions: time 16-24 hrs
# [3] = tested on: Staphylococcus aureus; assay: Inhibition of biofilm formation in Staphylococcus aureus USA300 upto 0.13 ug/ml incubated for 24 hrs by crystal violet staining based analysis; format: functional, organism-based; conditions: dose <= 0.13 µg/ml
# [4] = tested on: Staphylococcus aureus; assay: Antibacterial activity against methicillin-resistant Staphylococcus aureus MRSA 1 incubated for 16 to 24 hrs by broth microdilution method; format: functional; conditions: Staphylococcus aureus, MRSA 1, time 16-24 hrs; read-out: MIC
# [5] = tested on: Staphylococcus aureus; assay: Bactericidal activity against methicillin-resistant Staphylococcus aureus MRSA 1; format: functional
# [6] = tested on: Staphylococcus aureus; assay: Antibacterial activity against methicillin-resistant Staphylococcus aureus infected in BALB/c mouse wound model assessed as reversal of inflammation-induced IL-1beta level in wound at 20 to 80 mg/kg administered topically on days 0, 3 and 6 measured after 12 days by ELISA; format: functional, organism-based; conditions: dose 20-80 mg/kg, route top, time 12.0 day
# [7] = tested on: Staphylococcus aureus; assay: Antibacterial activity against methicillin-resistant Staphylococcus aureus infected in BALB/c mouse wound model assessed as angiogenesis in skin tissue by measuring increase in CD31 expression at 20 to 80 mg/kg administered topically on days 0, 3 and 6 measured after 12 days by IHC analysis; format: functional, organism-based; conditions: dose 20-80 mg/kg, route top, time 12.0 day
# [8] = tested on: Staphylococcus aureus; assay: Bactericidal activity against methicillin-resistant Staphylococcus aureus USA300 at 4 times MIC measured for 12 to 24 hrs by time-kill assay; format: functional, organism-based; conditions: time 12-24 hrs
# [9] = tested on: Staphylococcus aureus; assay: Antibacterial activity against methicillin-resistant Staphylococcus aureus infected in BALB/c mouse wound model assessed as reversal of inflammation-induced TNF-alpha level in wound at 20 to 80 mg/kg administered topically on days 0, 3 and 6 measured after 12 days by ELISA; format: functional, organism-based; conditions: dose 20-80 mg/kg, route top, time 12.0 day
# [10] = tested on: Staphylococcus aureus; assay: Antibacterial activity against Staphylococcus aureus NCTC 8325-4 incubated for 16 to 24 hrs by broth microdilution method; format: functional; conditions: time 16-24 hrs
# [11] = tested on: Acinetobacter baumannii; assay: Antibacterial activity against Acinetobacter baumannii ATCC 19606 incubated for 16 to 24 hrs by broth microdilution method; format: functional; conditions: time 16-24 hrs
# [12] = tested on: Listeria monocytogenes; assay: Bactericidal activity against Listeria monocytogenes EGD; format: functional
# [13] = tested on: Streptococcus suis; assay: Bactericidal activity against Streptococcus suis ZY05719; format: functional
# [14] = tested on: Staphylococcus aureus; assay: Antibacterial activity against methicillin-resistant Staphylococcus aureus infected in BALB/c mouse wound model assessed as increase in thickness of granulation tissue at 20 to 80 mg/kg administered topically on days 0, 3 and 6 measured for 6 to 12 days by H and E staining based analysis; format: functional, organism-based; conditions: dose 20-80 mg/kg, route top, time 6-12 day
# [15] = tested on: Staphylococcus aureus; assay: Bactericidal activity against Staphylococcus aureus USA300; format: functional
# [16] = tested on: Klebsiella pneumoniae; assay: Antibacterial activity against Klebsiella pneumoniae ATCC 43816 incubated for 16 to 24 hrs by broth microdilution method; format: functional; conditions: time 16-24 hrs
# [17] = tested on: Staphylococcus aureus; assay: Bactericidal activity against Staphylococcus aureus ATCC 29213; format: functional
# [18] = tested on: Escherichia coli; assay: Bactericidal activity against Escherichia coli ATCC 25922; format: functional
# [19] = target: DNA gyrase (Staphylococcus aureus, UniProt P0A0K8+P20831); assay: Inhibition of Staphylococcus aureus gyrase; format: protein-complex assay
# [20] = tested on: Staphylococcus aureus; assay: Effect on TCA cycle in Staphylococcus aureus USA300 at 4 times MIC by KEGG analysis; format: functional, organism-based
# [21] = tested on: Staphylococcus aureus; assay: Bacteriostatic activity against methicillin-resistant Staphylococcus aureus USA300 at 1 to 2 times MIC measured upto 24 hrs by time-kill assay; format: functional, organism-based
# [22] = tested on: Staphylococcus aureus; assay: Antibacterial activity against methicillin-resistant Staphylococcus aureus infected in BALB/c mouse wound model assessed as decrease in wound diameter at 20 to 80 mg/kg administered topically on days 0, 3 and 6 measured after 12 days; format: functional, organism-based; conditions: dose 20-80 mg/kg, route top, time 12.0 day
# [23] = tested on: Escherichia coli; assay: Bactericidal activity against Escherichia coli ATCC ZJ487; format: functional
# [24] = tested on: Staphylococcus aureus; assay: Disruption of cell membrane integrity in Staphylococcus aureus USA300 assessed as irregular cell structures at 4 to 8 times MIC by TEM/SEM analysis; format: functional, organism-based
# [25] = tested on: Acinetobacter baumannii; assay: Bactericidal activity against Acinetobacter baumannii ATCC 19606; format: functional
# [26] = tested on: Staphylococcus aureus; assay: Antibacterial activity against Staphylococcus aureus DU1090 incubated for 16 to 24 hrs by broth microdilution method; format: functional; conditions: time 16-24 hrs
# [27] = tested on: Staphylococcus aureus; assay: Effect on histidine metabolism in Staphylococcus aureus USA300 at 4 times MIC by KEGG analysis; format: functional, organism-based
# [28] = tested on: Staphylococcus aureus; assay: Bactericidal activity against Staphylococcus aureus ATCC 25923; format: functional
# [29] = tested on: Listeria monocytogenes; assay: Antibacterial activity against Listeria monocytogenes EGD incubated for 16 to 24 hrs by broth microdilution method; format: functional; conditions: time 16-24 hrs
# [30] = tested on: Acinetobacter baumannii; assay: Antibacterial activity against Acinetobacter baumannii ATCC 17978 incubated for 16 to 24 hrs by broth microdilution method; format: functional; conditions: time 16-24 hrs
# [31] = tested on: Acinetobacter baumannii; assay: Bactericidal activity against Acinetobacter baumannii ATCC 17978; format: functional
# [32] = tested on: J774.A1; assay: Cytotoxicity against mouse J774.A1 cells assessed as cell viability upto 8 ug/ml incubated for 6 hrs by LDH assay; format: toxicity, cell-based; conditions: j774.a1, 6 h, dose < 8 µg/ml
# [33] = tested on: Klebsiella pneumoniae; assay: Antibacterial activity against Klebsiella pneumoniae E8.31 incubated for 16 to 24 hrs by broth microdilution method; format: functional; conditions: time 16-24 hrs
# [34] = tested on: Staphylococcus aureus; assay: Antibacterial activity against methicillin-resistant Staphylococcus aureus MRSA 2 incubated for 16 to 24 hrs by broth microdilution method; format: functional; conditions: time 16-24 hrs
# [35] = tested on: Staphylococcus aureus; assay: Antibacterial activity against methicillin-resistant Staphylococcus aureus infected in BALB/c mouse wound model assessed as organised collagen fibers in skin tissue at 20 to 80 mg/kg administered topically on days 0, 3 and 6 measured for 6 to 12 days by Masson's trichome staining based analysis; format: functional, organism-based; conditions: dose 20-80 mg/kg, route top, time 6-12 day
# [36] = tested on: Listeria monocytogenes; assay: Bactericidal activity against Listeria monocytogenes EGD measured upto 24 hrs by time-kill assay; format: functional, organism-based
# [37] = tested on: Staphylococcus aureus; assay: Bactericidal activity against methicillin-resistant Staphylococcus aureus MRSA 2; format: functional
# [38] = tested on: Klebsiella pneumoniae; assay: Antibacterial activity against Klebsiella pneumoniae 13b5 incubated for 16 to 24 hrs by broth microdilution method; format: functional; conditions: time 16-24 hrs
# [39] = tested on: Staphylococcus aureus; assay: Disruption of cell membrane integrity in Staphylococcus aureus USA300 assessed as protein leakage at 0.25 ug/ml incubated for 6 hrs MIC by SDS-PAGE analysis; format: functional, organism-based; conditions: dose 0.25 µg/ml
# [40] = tested on: Staphylococcus aureus; assay: Bactericidal activity against Staphylococcus aureus USA400; format: functional
# [41] = tested on: Staphylococcus aureus; assay: Antibacterial activity against methicillin-resistant Staphylococcus aureus infected in BALB/c mouse wound model assessed as neovascularization in skin tissue at 20 to 80 mg/kg administered topically on days 0, 3 and 6 measured for 6 to 12 days by H and E staining based analysis; format: functional, organism-based; conditions: dose 20-80 mg/kg, route top, time 6-12 day
# [42] = tested on: Staphylococcus aureus; assay: Antibacterial activity against Staphylococcus aureus USA300 assessed as acceleration of TCA cycle measured by decrease in NAD+/NADH ratio upto 0.25 ug/ml incubated for 5 hrs; format: functional, organism-based; conditions: dose <= 0.25 µg/ml
# [43] = tested on: Staphylococcus aureus; assay: Antibacterial activity against methicillin-resistant Staphylococcus aureus infected in BALB/c mouse wound model assessed as decrease in CD68 expression in skin tissue at 20 to 80 mg/kg administered topically on days 0, 3 and 6 measured after 12 days by IHC analysis; format: functional, organism-based; conditions: dose 20-80 mg/kg, route top, time 12.0 day
# DNA gyrase, sequence (P0A0K8 whole entry): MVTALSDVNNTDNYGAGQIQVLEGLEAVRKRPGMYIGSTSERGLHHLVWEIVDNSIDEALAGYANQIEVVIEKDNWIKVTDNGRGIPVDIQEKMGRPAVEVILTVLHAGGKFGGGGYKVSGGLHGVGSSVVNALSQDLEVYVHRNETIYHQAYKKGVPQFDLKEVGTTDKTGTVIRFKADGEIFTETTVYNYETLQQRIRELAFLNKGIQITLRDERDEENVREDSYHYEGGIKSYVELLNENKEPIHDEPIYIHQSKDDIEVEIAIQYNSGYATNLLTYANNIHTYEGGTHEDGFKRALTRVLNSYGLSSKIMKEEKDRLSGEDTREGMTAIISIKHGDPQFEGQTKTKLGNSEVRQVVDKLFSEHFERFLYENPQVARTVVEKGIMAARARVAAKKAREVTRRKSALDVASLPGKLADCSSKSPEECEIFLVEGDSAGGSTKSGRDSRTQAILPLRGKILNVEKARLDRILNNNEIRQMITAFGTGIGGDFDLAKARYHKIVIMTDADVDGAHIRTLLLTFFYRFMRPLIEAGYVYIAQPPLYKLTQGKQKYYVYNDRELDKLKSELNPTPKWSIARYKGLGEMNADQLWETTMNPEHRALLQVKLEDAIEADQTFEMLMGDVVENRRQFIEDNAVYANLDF
# DNA gyrase, sequence (P20831 whole entry): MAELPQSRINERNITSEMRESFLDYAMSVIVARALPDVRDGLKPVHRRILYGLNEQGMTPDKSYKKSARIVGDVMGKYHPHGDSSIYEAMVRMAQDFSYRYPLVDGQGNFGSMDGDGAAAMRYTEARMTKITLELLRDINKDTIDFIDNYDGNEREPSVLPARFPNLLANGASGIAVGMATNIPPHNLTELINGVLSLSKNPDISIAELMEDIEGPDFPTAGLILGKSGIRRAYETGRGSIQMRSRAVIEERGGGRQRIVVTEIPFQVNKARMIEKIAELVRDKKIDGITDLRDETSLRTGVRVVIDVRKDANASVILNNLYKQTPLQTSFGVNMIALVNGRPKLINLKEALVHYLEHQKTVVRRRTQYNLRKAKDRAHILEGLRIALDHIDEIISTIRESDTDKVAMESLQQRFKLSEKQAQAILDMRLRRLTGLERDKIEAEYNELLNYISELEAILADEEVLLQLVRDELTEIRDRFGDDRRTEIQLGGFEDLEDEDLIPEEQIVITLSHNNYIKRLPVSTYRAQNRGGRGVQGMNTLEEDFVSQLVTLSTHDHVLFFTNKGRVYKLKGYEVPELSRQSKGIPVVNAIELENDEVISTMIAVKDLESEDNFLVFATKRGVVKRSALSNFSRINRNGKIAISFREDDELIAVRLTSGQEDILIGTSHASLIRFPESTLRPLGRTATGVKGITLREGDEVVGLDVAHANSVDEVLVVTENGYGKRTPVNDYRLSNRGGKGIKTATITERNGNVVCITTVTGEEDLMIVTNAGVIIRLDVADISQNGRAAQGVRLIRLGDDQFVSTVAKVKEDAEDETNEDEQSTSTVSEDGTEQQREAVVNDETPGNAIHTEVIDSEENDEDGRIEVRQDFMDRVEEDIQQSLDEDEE
structure (smiles),measurement,setting,value
CCn1c(=O)c(C(=O)Nc2nnc(-c3ccc(C)cn3)s2)c(O)c2ccccc21,MBC,[1],> 512 µg/mL
same,MIC,[2],0.03 µg/mL
same,inhibition,[3],Active
same,MIC,[4],0.02 µg/mL
same,MBC,[5],0.05 µg/mL
same,Activity,[6],Active
same,Activity,[7],Active
same,Activity,[8],Active
same,Activity,[9],Active
same,MIC,[10],0.03 µg/mL
same,MIC,[11],> 512 µg/mL
same,MBC,[12],> 0.25 µg/mL
same,MBC,[13],0.1 µg/mL
same,Activity,[14],Active
same,MBC,[15],0.16 µg/mL
same,MIC,[16],> 512 µg/mL
same,MBC,[17],0.15 µg/mL
same,MBC,[18],> 512 µg/mL
same,IC50,[19],1.19 µM
same,Activity,[20],Active
same,Activity,[21],Active
same,Activity,[22],Active
same,MBC,[23],> 512 µg/mL
same,Activity,[24],Active
same,MBC,[25],> 512 µg/mL
same,MIC,[26],0.02 µg/mL
same,Activity,[27],Active
same,MBC,[28],0.1 µg/mL
same,MIC,[29],0.02 µg/mL
same,MIC,[30],> 512 µg/mL
same,MBC,[31],> 512 µg/mL
same,Activity,[32],Non-toxic
same,MIC,[33],> 512 µg/mL
same,MIC,[34],0.02 µg/mL
same,Activity,[35],Active
same,Activity,[36],Active; Bacteria Were Suppressed Or Completely Eliminated
same,MBC,[37],0.05 µg/mL
same,MIC,[38],> 512 µg/mL
same,Activity,[39],Active
same,MBC,[40],0.05 µg/mL
same,Activity,[41],Active
same,Activity,[42],Active
same,Activity,[43],Active

# — ChEMBL document CHEMBL6121054, “Discovery of Metabolic Reprogramming 2-Quinolones as Effective Antimicrobials for MRSA-Infected Wound Therapy” (J Med Chem, 2025)
